Test results from the NIST ThermoML archive (doi:10.1016/j.jct.2011.06.007).
Numbers after ± are expanded uncertainties.

Tests used:
[1] = Molar enthalpy of transition or fusion; settings: Crystal; DSC
[2] = for mass density: 101.33 kPa, Liquid, Vibrating tube method
[3] = activity coefficient (dimensionless); of the first substance listed, at infinite dilution; xn = mol fraction of the nth substance listed; settings: 101 kPa, Liquid, Chromatography, x1 = 0

Molar enthalpy of transition or fusion [1] [kJ/mol] | mass density ([2]; 318.15 K) [kg/m3] | mass density ([2]; 328.15 K) [kg/m3] | mass density ([2]; 338.15 K) [kg/m3] | mass density ([2]; 348.15 K) [kg/m3] | mass density ([2]; 358.15 K) [kg/m3] | mass density ([2]; 368.15 K) [kg/m3] | Normal melting temperature ([2]; Crystal, DTA) [°C] | activity coefficient ([3]; 318.15 K) | activity coefficient ([3]; 328.15 K) | activity coefficient ([3]; 338.15 K) | activity coefficient ([3]; 348.15 K) | activity coefficient ([3]; 358.15 K) | activity coefficient ([3]; 368.15 K) | Structure (SMILES)
35.6 ± 0.77 | 962.29 ± 1 | 955.61 ± 1 | 949 ± 1 | 942.32 ± 1 | 935.59 ± 1 | 928.86 ± 1 | 17.30 ± 0.39 | – | – | – | – | – | – | CCCC[N+]1(C)CCCC1.N#C[B-](C#N)(C#N)C#N [1-butyl-1-methylpyrrolidinium tetracyanoborate]
– | – | – | – | – | – | – | – | 23 ± 1.6 | 21.5 ± 1.5 | 19.8 ± 1.4 | 19 ± 1.3 | 17.5 ± 1.2 | 16.6 ± 1.1 | CCCCCCC [heptane] + CCCC[N+]1(C)CCCC1.N#C[B-](C#N)(C#N)C#N
– | – | – | – | – | – | – | – | 12.1 ± 0.8 | 11.2 ± 0.8 | 10.5 ± 0.7 | 10.2 ± 0.7 | 9.56 ± 0.65 | 9.09 ± 0.62 | CCCCC [pentane] + CCCC[N+]1(C)CCCC1.N#C[B-](C#N)(C#N)C#N
– | – | – | – | – | – | – | – | 3.49 ± 0.24 | 3.5 ± 0.24 | 3.51 ± 0.24 | 3.53 ± 0.24 | 3.54 ± 0.24 | 3.56 ± 0.24 | C#CCCCCC [1-heptyne] + CCCC[N+]1(C)CCCC1.N#C[B-](C#N)(C#N)C#N
– | – | – | – | – | – | – | – | 0.65 ± 0.044 | 0.664 ± 0.045 | 0.688 ± 0.046 | 0.71 ± 0.047 | 0.719 ± 0.048 | 0.732 ± 0.048 | CCC(=O)CC [pentan-3-one] + CCCC[N+]1(C)CCCC1.N#C[B-](C#N)(C#N)C#N
– | – | – | – | – | – | – | – | 1.56 ± 0.1 | 1.58 ± 0.1 | 1.6 ± 0.11 | 1.64 ± 0.11 | 1.66 ± 0.11 | 1.69 ± 0.11 | CCc1ccccc1 [ethylbenzene] + CCCC[N+]1(C)CCCC1.N#C[B-](C#N)(C#N)C#N
– | – | – | – | – | – | – | – | 16.4 ± 1.1 | 15.3 ± 1 | 14.3 ± 1 | 13.8 ± 0.9 | 12.9 ± 0.9 | 12.3 ± 0.8 | CCCCCC [hexane] + CCCC[N+]1(C)CCCC1.N#C[B-](C#N)(C#N)C#N

Structure (SMILES) | Molar enthalpy of transition or fusion [1] [kJ/mol] | mass density ([2]; 318.15 K) [kg/m3] | mass density ([2]; 328.15 K) [kg/m3] | mass density ([2]; 338.15 K) [kg/m3] | mass density ([2]; 348.15 K) [kg/m3] | mass density ([2]; 358.15 K) [kg/m3] | mass density ([2]; 368.15 K) [kg/m3] | Normal melting temperature ([2]; Crystal, DTA) [°C] | activity coefficient ([3]; 318.15 K) | activity coefficient ([3]; 328.15 K) | activity coefficient ([3]; 338.15 K) | activity coefficient ([3]; 348.15 K) | activity coefficient ([3]; 358.15 K) | activity coefficient ([3]; 368.15 K)
CC(C)=O [acetone] + CCCC[N+]1(C)CCCC1.N#C[B-](C#N)(C#N)C#N | – | – | – | – | – | – | – | – | 0.439 ± 0.035 | 0.441 ± 0.035 | 0.454 ± 0.036 | 0.464 ± 0.036 | 0.468 ± 0.037 | 0.485 ± 0.037
Cc1ccc(C)cc1 [1,4-dimethylbenzene] + CCCC[N+]1(C)CCCC1.N#C[B-](C#N)(C#N)C#N | – | – | – | – | – | – | – | – | 1.46 ± 0.1 | 1.49 ± 0.1 | 1.54 ± 0.1 | 1.58 ± 0.1 | 1.59 ± 0.11 | 1.62 ± 0.11
Cc1ccccc1 [toluene] + CCCC[N+]1(C)CCCC1.N#C[B-](C#N)(C#N)C#N | – | – | – | – | – | – | – | – | 1.09 ± 0.07 | 1.11 ± 0.07 | 1.14 ± 0.07 | 1.16 ± 0.07 | 1.18 ± 0.08 | 1.2 ± 0.08
